Results published in patent publication EP4755880A1, “SUBSTITUTED NITROGEN-CONTAINING BICYCLIC COMPOUND AND USE THEREOF” (Sunshine Lake Pharma Co., Ltd., priority 2023, dated 2025).

Experiments:
PARP1 = PARP1 (Homo sapiens, UniProt P09874); experiment: Inhibition of PARP1 enzyme activity (ELISA, chemiluminescence); format: biochemical; conditions: for IC50: ELISA, histone-coated plate, NAD+, 60 min at 25 °C; for Selectivity PARP2/PARP1: ratio of PARP2 IC50 to PARP1 IC50
Procedure: Experimental Objective: To evaluate the inhibitory effect of the compounds of the present invention on the enzyme activities of PARP1 and PARP2 using ELISA.
• 1. histone-coated 384-well plates was prepared: 25 µL of histone solution was added to each well and incubated overnight at 4 °C. • 2. PBST buffer, blocking buffer (PBS buffer with 5% BSA and 0.05% Tween-20 added) and detection buffer (20 mM HEPES pH 7.5 + 100 mM NaCl + 2 mM DTT + 0.002% Tween-20 + 0.1% BSA) were prepared. • 3. The histone-coated 3 84-well plate was washed three times with PBST buffer, blocked at room temperature with 50 µL blocking buffer for 1 hour, and then washed three times with PBST buffer. • 4. Test compounds were prepared as 2000-fold stock solutions in DMSO. 50 nL of the stock solution was mixed with 19.95 µL detection buffer, and 5 µL of the gradient-diluted test compound was transferred to each well. • 5. Enzymatic reaction (PARP1): PARP1 & DNA mix was pre-incubated at 25 °C for 10 minutes. 10 µL of the PARP1 & DNA mix was added to each well and incubated with the test compound at room temperature for 10 minutes. […] Finally, the 384-well plate was washed three times with PBST buffer. Enzymatic reaction (PARP2): PARP2 was pre-incubated at 25 °C for 10 minutes. 10 µL of PARP2 was added to each well and incubated with the test compound at room temperature for 10 minutes. […] Finally, the 384-well plate was washed three times with PBST buffer. • 6. Detection (PARP1): 20 µL of anti-Poly/Mono-ADP Ribose Rabbit mAb was added and incubated at room temperature for 1.5 hours, followed by three washes of the 384-well plate with PBST buffer. Then, 20 µL of diluted anti-rabbit IgG, HRP-linked Antibody (diluted 1:2000 in blocking buffer) was added and incubated at room temperature for 1 hour. After washing the plate three times with PBST buffer, 25 µL of a 1:1 mixture of Femto-ECL Substrate A and Femto-ECL Substrate B was added. Detection (PARP2): 25 µL of Strep-HRP was added and incubated at room temperature for 1 hour, followed by three washes of the 384-well plate with PBS buffer. Then, 25 µL of a 1:1 mixture of Femto-ECL Substrate A and Femto-ECL Substrate B was added. • 7. Chemiluminescence intensity was measured using an Envision multimode microplate reader. • 8. Data Processing
The inhibition rate was calculated in Excel using formula (1). inh% = (Max−Signal)/(Max−Min)*100 [formula]
The IC50 value was obtained by fitting the data in XL-Fit using formula (2). Y = bottom + (top−bottom)/(1+(IC50/X)*HillSlope); [formula] wherein Y is the inhibition percentage and X is the compound concentration.

DLD-1 BRCA2(-/-) cells = experiment: Inhibition of proliferation of DLD-1 BRCA2(-/-) cells (CTG method); format: cell-based; conditions: Homo sapiens, DLD-1, 168 h; 7 days incubation, CellTiter-Glo
Procedure: • 1. Cell Pretreatment: DLD-1 BRCA2(-/-) cells were cultured in growth medium 1640 + 10% FBS (fetal bovine serum) + 1% Penicillin-Streptomycin. Cells in the logarithmic growth phase were digested with trypsin-EDTA, centrifuged, and resuspended. DLD-1 BRCA2(-/-) cells were seeded at 1,000 cells/well in sterile 96-well opaque plates, 75 µl per well. After seeding, the cell culture plates were incubated overnight at 37 °C with 5% CO2 before adhesion, followed by treatment with the test compounds. • 2. DLD-1 BRCA2(-/-) Cell Drug Treatment: The test compound was prepared as a 10 mM stock solution using DMSO. The test compound was then diluted to a 4× working solution using growth medium (starting at 40 µM, with 9 4-fold dilutions). 25 µl of 4× working solution was added to each well to achieve final concentrations of 10000, 2500, 625, 156, 39, 9.7, 2.4, 0.61, and 0.152 nM, respectively. Blank control wells containing the same DMSO concentration were also included, with three replicates for each concentration. After adding the test compound, the cells were incubated at 37 °C with 5% CO2 for 7 days. • 3. After incubation, 100 µl of CellTiter-Glo® Reagent was added to each well, and […] intensity was measured. A curve was fitted using GraphPad software, and the IC50 value for cell proliferation inhibition was calculated.

PARP2 = PARP2 (Homo sapiens, UniProt Q9UGN5); experiment: biochemical;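 further: PARP2 enzyme ELISA on histone-coated plates, Strep-HRP detection with chemiluminescence read-out, 10 min compound preincubation with enzyme, inhibition scaled between Max and Min signal controls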
MDA-MB-436 cells = experiment: Inhibition of proliferation of MDA-MB-436 cells (CellTiter-Glo); format: cell-based; conditions: Homo sapiens, MDA-MB-436, 168 h, 7 days incubation
Procedure: • 1. Cell Pretreatment: MDA-MB-436 cells were cultured in DMEM + 10% FBS + 1% penicillin-dip antibiotics + 1% ITS + 16 µg/ml glutathione. Cells in the logarithmic growth phase were digested with trypsin-EDTA, centrifuged and resuspended, and then seeded at a rate of 500-1000 cells/well in sterile 96-well opaque plates, 90 µl per well. After seeding, the cell culture plates were incubated overnight at 37°C with 5% CO2 before drug treatment. • 2. Drug treatment of MDA-MB-436 cells: The test compound was prepared as a 10 mM stock solution using DMSO. The drug was then diluted to a 10× working solution using growth medium (the compound was started at 100 µM and diluted 4-fold to achieve 9 concentrations). 10 µl of the 10× working solution was added to each well to achieve final drug concentrations of 10000, 2500, 625, 156, 39, 9.7, 2.4, 0.61, and 0.152 nM, respectively. Blank control wells containing the same DMSO concentration were also included, with three replicates for each concentration. After drug addition, the cells were incubated at 37°C with 5% CO2 for 7 days. • 3. After incubation, 100 µl of CellTiter-Glo® Reagent was added to each well, and luminescence was measured. The IC50 value of cell proliferation inhibition was calculated using GraphPad software to fit the curve. Table E: Results of the inhibitory effect of the compound of this invention on the proliferation of MDA-MB-436 cells.

[1] = Pharmacokinetics in mice after intravenous injection or gavage; conditions: BALB/c, mouse, plasma
Procedure: The compounds of the present invention were administered to test animals in the form of 5% DMSO + 30% PEG400 + 65% physiological saline, 10% DMSO + 10% Kolliphor HS15 + 80% Saline, 10% DMSO + 89% (25% SBE-B-CD) + (2% HCl), 20% PEG400 + 80% sterile water for injection, or 10% DMA+ 10% HS15 + 30% PEG400 + 50% sterile aqueous solution for injection. Animals were fasted for 12 hours before administration but had free access to water. For the intravenous administration group, the dose was 1 mg/kg. Blood samples (approximately 0.15 mL) were collected intravenously at the following time points after administration: 0.083, 0.25, 0.5, 1.0, 2.0, 4.0, 6.0, 8.0 and 24 h (dogs) or 0.083, 0.25, 0.5, 1.0, 2.0, 5.0, 7.0 and 24 h (mice and rats) or 0.083, 0.25, 0.5, 1.0, 2.0, 6.0, 8.0 and 24 h (monkeys). EDTA-K2 was pre-added to the blood collection tube as an anticoagulant. The blood samples were centrifuged at 12,000 rpm for 2 minutes, and plasma was collected and stored at -20 °C or - 70 °C. For the gavage administration group, the dosage was 1 mg/kg (mice, dogs, and monkeys) or 5 mg/kg (rats). After administration, venous blood samples (approximately 0.15 mL) were collected at the following time points: 0.25, 0.5, 1.0, 2.0, 4.0, 6.0, 8.0, and 24 h (dogs) or 0.25, 0.5, 1.0, 2.0, 5.0, 7.0, and 24 h (mice and rats) or 0.25, 0.5, 1.0, 2.0, 6.0, 8.0, and 24 h (monkeys). EDTA-K2 was pre-added to the blood collection tube as an anticoagulant. The blood samples were centrifuged at 12,000 rpm for 2 minutes, and plasma was collected and stored at -20 °C or -70 °C.
The collected plasma samples were processed (frozen plasma was thawed at room temperature, vortexed for 15 s to mix, 10-20 µL of plasma was taken, 120-150 µL of acetonitrile solution containing internal standard was added, vortexed for 5 min to mix, centrifuged at 4,000 rpm for 5 min, 100 µL of supernatant was taken, and 120-150 Ml/water (v/v = 1/1) was added and mixed). The concentration of compounds in the plasma was then analyzed by LC-MS/MS.

Sequence of PARP2 (Q9UGN5 whole entry): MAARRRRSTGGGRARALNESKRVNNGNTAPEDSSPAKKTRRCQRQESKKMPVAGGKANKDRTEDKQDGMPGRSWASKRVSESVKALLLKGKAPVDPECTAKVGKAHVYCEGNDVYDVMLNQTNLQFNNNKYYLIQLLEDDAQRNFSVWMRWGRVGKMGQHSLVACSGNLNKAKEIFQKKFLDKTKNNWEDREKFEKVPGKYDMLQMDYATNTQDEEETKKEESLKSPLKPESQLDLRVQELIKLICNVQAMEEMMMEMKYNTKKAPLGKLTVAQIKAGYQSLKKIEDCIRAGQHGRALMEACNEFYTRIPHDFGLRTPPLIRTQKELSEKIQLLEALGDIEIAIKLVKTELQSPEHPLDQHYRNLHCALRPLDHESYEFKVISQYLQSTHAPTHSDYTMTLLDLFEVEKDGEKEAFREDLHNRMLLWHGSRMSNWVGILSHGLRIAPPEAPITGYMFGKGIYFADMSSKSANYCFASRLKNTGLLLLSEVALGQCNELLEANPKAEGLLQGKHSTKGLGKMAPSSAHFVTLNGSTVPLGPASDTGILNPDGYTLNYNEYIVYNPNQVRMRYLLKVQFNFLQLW
Sequence of PARP1 (P09874 whole entry): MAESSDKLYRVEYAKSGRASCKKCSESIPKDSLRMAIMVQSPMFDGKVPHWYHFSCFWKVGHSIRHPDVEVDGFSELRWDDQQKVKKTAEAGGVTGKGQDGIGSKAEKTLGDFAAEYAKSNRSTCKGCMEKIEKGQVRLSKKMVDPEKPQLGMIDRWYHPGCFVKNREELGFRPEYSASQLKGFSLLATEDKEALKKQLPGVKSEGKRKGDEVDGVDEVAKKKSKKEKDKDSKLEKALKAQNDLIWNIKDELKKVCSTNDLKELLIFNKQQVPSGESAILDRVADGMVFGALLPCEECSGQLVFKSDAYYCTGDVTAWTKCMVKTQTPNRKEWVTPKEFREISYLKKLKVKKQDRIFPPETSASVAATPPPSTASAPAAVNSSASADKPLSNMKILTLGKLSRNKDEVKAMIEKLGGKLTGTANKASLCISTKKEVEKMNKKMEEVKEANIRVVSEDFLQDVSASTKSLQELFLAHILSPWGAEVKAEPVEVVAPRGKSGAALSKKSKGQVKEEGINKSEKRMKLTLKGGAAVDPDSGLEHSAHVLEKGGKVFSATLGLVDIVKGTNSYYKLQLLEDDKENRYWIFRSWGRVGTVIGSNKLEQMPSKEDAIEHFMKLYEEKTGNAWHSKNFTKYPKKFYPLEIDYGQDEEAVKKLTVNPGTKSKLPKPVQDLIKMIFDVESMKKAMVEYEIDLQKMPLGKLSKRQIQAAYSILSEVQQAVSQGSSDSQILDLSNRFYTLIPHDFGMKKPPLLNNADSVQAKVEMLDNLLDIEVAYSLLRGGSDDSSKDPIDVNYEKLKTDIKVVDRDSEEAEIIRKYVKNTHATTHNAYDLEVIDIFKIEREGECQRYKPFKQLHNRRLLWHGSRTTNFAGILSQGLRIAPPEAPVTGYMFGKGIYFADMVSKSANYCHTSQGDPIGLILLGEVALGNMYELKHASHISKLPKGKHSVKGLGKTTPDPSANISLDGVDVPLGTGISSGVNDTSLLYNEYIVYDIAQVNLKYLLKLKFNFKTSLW

## CNC(=O)c1ccc(N2CCN(Cc3cc(C#CC4CC4)c4nc(C)c(=O)[nH]c4c3F)CC2)c(F)n1 [Example 22, 5-(4-((8-(cyclopropylethynyl)-5-fluoro-2-methyl-3-oxo-3,4-dihydroquinoxalin-6-yl)methyl)piperazin-1-yl)-6-fluoro-N-methylpicolinamide]
PARP1
  IC50: 5.5 nM
  Selectivity PARP2/PARP1: 1813.7
DLD-1 BRCA2(-/-) cells
  IC50: 0.0318 µM
PARP2
  IC50: > 10 µM

## CC#Cc1cc(CN2CCN(c3ccc(C(=O)NC)nc3C)CC2)cc2[nH]c(=O)c(C)nc12 [Example 38, N,6-dimethyl-5-(4-((2-methyl-3-oxo-8-(prop-1-yn-1-yl)-3,4-dihydroquinoxalin-6-yl)methyl)piperazin-1-yl)picolinamide]
DLD-1 BRCA2(-/-) cells
  IC50: 0.0151 µM
MDA-MB-436 cells
  IC50: 0.005 µM

## CNC(=O)c1ccc(N2CCN(Cc3cc(OC(F)(F)F)c4nc(C)c(=O)[nH]c4c3)CC2)c(C)n1 [Example 64, N,6-dimethyl-5-(4-((2-methyl-3-oxo-8-(trifluoromethoxy)-3,4-dihydroquinoxalin-6-yl)methyl)piperazin-1-yl)picolinamide]
PARP1
  IC50: 3.6 nM
  Selectivity PARP2/PARP1: 46.9
DLD-1 BRCA2(-/-) cells
  IC50: 0.0098 µM
PARP2
  IC50: 0.169 µM

## CCNNC(=O)c1ccc(N2CCN(Cc3cc(OC(F)F)c4nc(C)c(=O)[nH]c4c3)CC2)c(F)n1 [Example 66, 5-(4-((8-(difluoromethoxy)-2-methyl-3-oxo-3,4-dihydroquinoxalin-6-yl)methyl)piperazin-1-yl)-N'-ethyl-6-fluoropicolinohydrazide]
PARP1
  IC50: 2.4 nM
  Selectivity PARP2/PARP1: 59.6
DLD-1 BRCA2(-/-) cells
  IC50: 0.00702 µM
PARP2
  IC50: 0.143 µM

## CNC(=O)c1ccc(N2CCN(Cc3cc(-c4ccnn4C)c4nc(C)c(=O)[nH]c4c3)CC2)c(F)n1 [Example 68, 6-fluoro-N-methyl-5-(4-((2-methyl-8-(1-methyl-1H-pyrazol-5-yl)-3-oxo-3,4-dihydroquinoxalin-6-yl)methyl)piperazin-1-yl)picolinamide]
DLD-1 BRCA2(-/-) cells
  IC50: 0.0333 µM
MDA-MB-436 cells
  IC50: 0.0356 µM

## CNC(=O)c1ccc(N2CCN(Cc3cc(C#Cc4ccccc4)c4nc(C)c(=O)[nH]c4c3F)CC2)c(F)n1 [Example 53, 6-fluoro-5-(4-((5-fluoro-2-methyl-3-oxo-8-(phenylethynyl)-3,4-dihydroquinoxalin-6-yl)methyl)piperazin-1-yl)-N-methylpicolinamide]
DLD-1 BRCA2(-/-) cells
  IC50: 0.963 µM
MDA-MB-436 cells
  IC50: 3.94 µM

## CNC(=O)c1ccc(N2CCN(Cc3cc(-c4cnn(C)c4)c4nc(C)c(=O)[nH]c4c3)CC2)c(F)n1 [Example 70, 6-fluoro-N-methyl-5-(4-((2-methyl-8-(1-methyl-1H-pyrazol-4-yl)-3-oxo-3,4-dihydroquinoxalin-6-yl)methyl)piperazin-1-yl)picolinamide]
DLD-1 BRCA2(-/-) cells
  IC50: 0.0142 µM
MDA-MB-436 cells
  IC50: 0.0139 µM

## CNC(=O)c1ccc(N2CCN(Cc3cc(-c4ccc(OC)cc4)c4nc(C)c(=O)[nH]c4c3)CC2)c(F)n1 [Example 69, 6-fluoro-5-(4-((8-(4-methoxyphenyl)-2-methyl-3-oxo-3,4-dihydroquinoxalin-6-yl)methyl)piperazin-1-yl)-N-methylpyridine amide]
PARP1
  IC50: 3.2 nM
  Selectivity PARP2/PARP1: 2751.7
DLD-1 BRCA2(-/-) cells
  IC50: 0.0326 µM
PARP2
  IC50: 8.82 µM

## CCONC(=O)c1ccc(N2CCN(Cc3cc(OC(F)F)c4nc(C)c(=O)[nH]c4c3)CC2)c(F)n1 [Example 65, 5-(4-((8-(difluoromethoxy)-2-methyl-3-oxo-3,4-dihydroquinoxalin-6-yl)methyl)piperazin-1-yl)-N-ethoxy-6-fluoropicolinamide]
PARP1
  IC50: 1.9 nM
  Selectivity PARP2/PARP1: 42.1
DLD-1 BRCA2(-/-) cells
  IC50: 0.00427 µM
PARP2
  IC50: 0.08 µM

## CC#Cc1cc(CN2CC=C(c3ccc(C(=O)NC)nc3)CC2)cc2[nH]c(=O)c(C)nc12 [Example 51, N-methyl-1'-((2-methyl-3-oxo-8-(prop-1-yn-1-yl)-3,4-dihydroquinoxalin-6-yl)methyl)-1',2',3',6'-tetrahydro-[3,4'-bipyridine]-6-carboxamide]
PARP1
  IC50: 7.2 nM
  Selectivity PARP2/PARP1: 198.0
PARP2
  IC50: 1.42 µM

## CC#Cc1cc(CN2CCN(c3ccc(C(=O)NC)nc3F)CC2)c(F)c2[nH]c(=O)c(C3CC3)nc12 [Example 48, 5-(4-((2-cyclopropyl-5-fluoro-3-oxo-8-(prop-1-yn-1-yl)-3,4-dihydroquinoxalin-6-yl)methyl)piperazin-1-yl)-6-fluoro-N-methylpicolinamide]
DLD-1 BRCA2(-/-) cells
  IC50: 0.0236 µM

## CC#Cc1cc(CN2CCN(c3ccc(C#N)nc3)CC2)cc2[nH]c(=O)c(C)nc12 [Example 36, 5-(4-((2-methyl-3-oxo-8-(prop-1-yn-1-yl)-3,4-dihydroquinoxalin-6-yl)methyl)piperazin-1-yl)picolinonitrile]
PARP1
  IC50: 3 nM
  Selectivity PARP2/PARP1: 139.8
PARP2
  IC50: 0.413 µM

## CNC(=O)c1ccc(C2=CCN(Cc3cc(OC(F)F)c4nc(C)c(=O)[nH]c4c3F)CC2)c(F)n1 [Example 16, 1'-((8-(difluoromethoxy)-5-fluoro-2-methyl-3-oxo-3,4-dihydroquinoxalin-6-yl)methyl)-2-fluoro-N-methyl-1',2',3',6'-tetrahydro-[3,4'-bipyridine]-6-carboxamide]
PARP1
  IC50: 2.8 nM
  Selectivity PARP2/PARP1: >3625
MDA-MB-436 cells
  IC50: 0.0062 µM
PARP2
  IC50: > 10 µM

## CNC(=O)c1ccc(C2=CCN(Cc3cc(OC(F)F)c4nc(C)c(=O)[nH]c4c3)CC2)c(C)n1 [Example 58, 1'-((8-(difluoromethoxy)-2-methyl-3-oxo-3,4-dihydroquinoxalin-6-yl)methyl)-N,2-dimethyl-1',2',3',6'-tetrahydro-[3,4'-bipyridine]-6-carboxamide]
PARP1
  IC50: 1.1 nM
  Selectivity PARP2/PARP1: 2192.4
DLD-1 BRCA2(-/-) cells
  IC50: 0.0136 µM
PARP2
  IC50: 2.48 µM

## CNC(=O)c1ccc(N2CCN(Cc3cc(OC(F)F)c4nc(C)c(=O)[nH]c4c3F)CC2)c(F)n1 [Example 14, 5-(4-((8-(difluoromethoxy)-5-fluoro-2-methyl-3-oxo-3,4-dihydroquinoxalin-6-yl)methyl)piperazin-1-yl)-6-fluoro-N-methylpicolinamide]
PARP1
  IC50: 27.7 nM
  Selectivity PARP2/PARP1: 348.3
DLD-1 BRCA2(-/-) cells
  IC50: 0.0093 µM
PARP2
  IC50: 9.66 µM
[1]; iv, 2 mg/kg
  AUC(0-t): 4680 ng·h/mL
  Cmax: 2080 ng/mL
  half-life: 3.3 h
[1]; po, 5 mg/kg
  AUC(0-t): 16200 ng·h/mL
  Cmax: 3830 ng/mL
  half-life: 3.3 h

## CNC(=O)c1ccc(C2=CCN(Cc3cc(C#CC4CC4)c4nc(C)c(=O)[nH]c4c3F)CC2)c(F)n1 [Example 24, 1'-((8-(cyclopropylethynyl)-5-fluoro-2-methyl-3-oxo-3,4-dihydroquinoxalin-6-yl)methyl)-2-fluoro-N-methyl-1',2',3',6'-tetrahydro-[3,4'-bipyridine]-6-carboxamide]
PARP1
  IC50: 10 nM
  Selectivity PARP2/PARP1: 1004.6
PARP2
  IC50: > 10 µM

## CNC(=O)c1ccc(N2CCN(Cc3cc(Oc4cccc(F)c4)c4nc(C)c(=O)[nH]c4c3)CC2)c(F)n1 [Example 28, 6-fluoro-5-(4-((8-(3-fluorophenoxy)-2-methyl-3-oxo-3,4-dihydroquinoxalin-6-yl)methyl)piperazin-1-yl)-N-methylpicolinamide]
PARP1
  IC50: 1.8 nM
  Selectivity PARP2/PARP1: 356.3
PARP2
  IC50: 0.654 µM

## CC#Cc1cc(CN2CCN(c3ccc(C(=O)NC)nc3)CC2)c(F)c2[nH]c(=O)c(C)nc12 [Example 40, 5-(4-((5-fluoro-2-methyl-3-oxo-8-(prop-1-yn-1-yl)-3,4-dihydroquinoxalin-6-yl)methyl)piperazin-1-yl)-N-methylpicolinamide]
PARP1
  IC50: 5.7 nM
  Selectivity PARP2/PARP1: >1756.9
PARP2
  IC50: > 10 µM

## CNC(=O)c1ccc(N2CCN(Cc3cc(-c4cccc(OC)c4)c4nc(C)c(=O)[nH]c4c3)CC2)c(F)n1 [Example 73]
PARP1
  IC50: 5.7 nM
  Selectivity PARP2/PARP1: 472.0
PARP2
  IC50: 2.68 µM
